According to ChEMBL document CHEMBL3352162, “Synthesis of bi-/tricyclic azasugars fused thiazinan-4-one and their HIV-RT inhibitory activity” (Bioorg Med Chem Lett, 2014):

Target: Human immunodeficiency virus type 1 reverse transcriptase (Human immunodeficiency virus 1, UniProt Q72547)
Test: Inhibition of HIV-1 reverse transcriptase after 1 hr by ELISA plate reader analysis

SMILES | IC50 [µM]
O=C1c2ccccc2S[C@H]2[C@@H](O)[C@@H](O)[C@H](O)[C@H](CO)N12 | 0.49
O=C1c2ccccc2S[C@H]2[C@@H](O)[C@@H](O)[C@H](O)CN12 | 1.58
O=C1CCS[C@H]2[C@@H](O)[C@@H](O)[C@H](O)[C@H](CO)N12 | 12.9
O=C1CCS[C@@H]2[C@@H](O)[C@@H](O)[C@H](O)[C@@H](CO)N12 | 1.41
O=C1CCS[C@@H]2[C@@H](O)[C@@H](O)[C@H](O)[C@H](CO)N12 | 6.02
O=C1c2ccccc2S[C@@H]2[C@@H](O)[C@@H](O)[C@H](O)CN12 | 3.83

Results, then the compound that gave them:

IC50 [µM] | SMILES
1.32 | O=C1c2ccccc2S[C@@H]2[C@@H](O)[C@@H](O)[C@H](O)[C@H](CO)N12
31.4 | O=C1c2cccnc2S[C@H]2[C@@H](O)[C@@H](O)[C@H](O)[C@H](CO)N12
53.8 | O=C1c2cccnc2S[C@@H]2[C@@H](O)[C@@H](O)[C@H](O)[C@@H](CO)N12
26.8 | O=C1c2cccnc2S[C@@H]2[C@@H](O)[C@@H](O)[C@H](O)[C@H](CO)N12
19.7 | O=C1c2ccccc2S[C@@H]2[C@@H](O)[C@@H](O)[C@H](O)[C@@H](CO)N12
